Data as given in a melting point compilation (Tetko et al.).

| SMILES | melting point [°C] |
| --- | --- |
| CCCSC(=O)c1ccc([Si](CCC(F)(F)C(F)(F)C(F)(F)C(F)(F)C(F)(F)C(F)(F)C(F)(F)C(F)(F)C(F)(F)C(F)(F)F)(CCC(F)(F)C(F)(F)C(F)(F)C(F)(F)C(F)(F)C(F)(F)C(F)(F)C(F)(F)C(F)(F)C(F)(F)F)CCC(F)(F)C(F)(F)C(F)(F)C(F)(F)C(F)(F)C(F)(F)C(F)(F)C(F)(F)C(F)(F)C(F)(F)F)cc1 | 69 to 71 |
| CCC(O)C=CC=CC=CC(=O)OCC1OC(OC2C(CO)OC3(OCc4cc(O)cc(O)c43)C(O)C2OC(=O)C=CC=CCC(O)C(C)=CC=CCCC(C)CC)C(O)C(O)C1O (centres undefined) | 193 to 197 |
| CS(C)(=O)=NC(=O)c1cc(Oc2ccc(C(F)(F)F)cc2Cl)ccc1[N+](=O)[O-] | 122 |
| COc1cc2c(cc1-c1cc3c4cc(-c5ccccc5)ccc4n(CCC(C)CCCC(C)C)c3cc1OC)c1cc(-c3ccccc3)ccc1n2CCC(C)CCCC(C)C (centres undefined) | 155 |
| CC#CCOc1ccc(S(=O)(=O)C(C(=O)NO)C2CCCCC2)cc1 (centres undefined) | 191 |
| CCCCC(CC)C(=O)Cl (centres undefined) | < -75 |
| CC(C)(C)c1cc(CCC(=O)OCCOc2ccc(C(C)(C)c3ccc(OCCOC(=O)CCc4cc(C(C)(C)C)c(O)c(C(C)(C)C)c4)cc3)cc2)cc(C(C)(C)C)c1O | 104 to 106 |
| CCCCCCCCCCCCCCCCCCCCCCCCCCCCCCCCCCCCCCCCCCCC | 87.5 to 88 |
| C=COC(=O)CCC | -80 |
| CCCCC1(CC)CS(=O)(=O)c2ccc(N(C)C)cc2C(c2cccc(NC(=O)COCCOCCOCC(=O)NCc3ccc(C4C(CCC(O)c5ccccc5)C(=O)N4c4ccc(F)cc4)cc3)c2)C1O (centres undefined) | 120 |
| CCCCCCCCCCCCCC=CC(OC(=O)c1ccccc1)C(COC1OC(CO)C(OCCC(C(=O)OC(C)(C)C)C(=O)OC(C)(C)C)C(O)C1O)NC(=O)CCCCCCCCCCCCCCC (centres undefined) | 48 to 50 |
| CCCCCCCCCCCCCCCCCCN(CCCCCCCCCCCCCCCCCC)C(=O)c1cc(NS(=O)(=O)c2cnc(Cl)c(OC)c2)c2ccccc2c1O | 85 to 87 |
| CC(=O)OCC(CN(CC(COC(C)=O)OC(C)=O)C(=O)c1c(I)c(NC(=O)C2CCCO2)c(I)c(C(N)=O)c1I)OC(C)=O (centres undefined) | 101 to 104 |
| CCC1(O)CC(OC2CC(N(C)C)C(OC3CC(O)C(OC4CCC(=O)C(C)O4)C(C)O3)C(C)O2)c2c(cc3c(c2O)C(=O)c2c(O)cccc2C3=O)C1C(=O)OC (centres undefined) | 148 |
| CC(C)(C)c1cc(Cc2cc(C(C)(C)C)cc(-n3nc4ccc(S(=O)(=O)c5ccccc5)cc4n3)c2O)c(O)c(-n2nc3ccc(S(=O)(=O)c4ccccc4)cc3n2)c1 | 224 to 234 |
| C=CCC1C=C(C)CC(C)CC(OC)C2OC(O)(C(C)CC2OC)C(O)C(=O)N2CCCCC2C(=O)OC(C(C)=CC2CCC(O)C(OC)C2)C(C)C(O)CC1O (centres undefined) | 130 to 150 |
| CCCCCCCCCCCCCCCCCCCCCC(=O)OCCN(CCOC(=O)CCCCCCCCCCCCCCCCCCCCC)CC(=O)O | 73 to 75 |
| FC(F)(F)C(F)(F)C(F)(F)C(F)(F)C(F)(F)C(F)(F)C(F)(F)C(F)(F)CCC1(CCC(F)(F)C(F)(F)C(F)(F)C(F)(F)C(F)(F)C(F)(F)C(F)(F)C(F)(F)F)c2ccccc2-c2ccccc21 | 87 to 88 |
| COC(=O)COC1C(NC(C)=O)C(OCc2ccccc2)OC(COCc2ccccc2)C1OC1(N)OC(COCc2ccccc2)C(OCc2ccccc2)C(OCc2ccccc2)C1C(=O)OCC(Cl)(Cl)Cl (centres undefined) | 176 to 178 |
| C=C(C)[C@@H]1CC[C@]2(C(=O)N[C@@H]3C[C@H](C(=O)OCc4ccccc4)C3(C)C)CC[C@]3(C)[C@H](CC[C@@H]4[C@@]5(C)CC[C@H](OC(=O)CC(C)(C)C(=O)O)C(C)(C)[C@@H]5CC[C@]43C)[C@@H]12 | 64.7 to 100 |
| COc1cc(OC)c(/C=C/C(c2ccc(OC)c(NC(=O)C(C)(C)OC(C)=O)c2)S(=O)(=O)C(/C=C/c2c(OC)cc(OC)cc2OC)c2ccc(OC)c(NC(=O)C(C)(C)OC(C)=O)c2)c(OC)c1 (centres undefined) | 148 to 150 |

| SMILES | melting point [°C] |
| --- | --- |
| CCCCCCCCCCCCCCCCCCSc1nc(SCCCCCCCCCCCCCCCCCC)nc(-c2cc(C(C)(C)C)c(O)c(C(C)(C)C)c2)n1 | 87 to 89 |
| C=CCN(CC=C)c1nc(OC)nc(N(CCCCCCN(c2nc(OC)nc(N(CC=C)CC=C)n2)C2CC(C)(C)NC(C)(C)C2)C2CC(C)(C)NC(C)(C)C2)n1 | 113 to 115 |
| COc1cc(OC)c(/C=C/C(c2ccc(OC)c(NC(=O)C(C)(C)O)c2)S(=O)(=O)C(/C=C/c2c(OC)cc(OC)cc2OC)c2ccc(OC)c(NC(=O)C(C)(C)O)c2)c(OC)c1 (centres undefined) | 198 to 199 |
| CCN(C(=O)OC(C)(C)C)C(=NC(=O)OC(C)(C)C)N1CCN(C(=O)[C@@H]2CCCN2S(=O)(=O)c2ccc(Cl)c(COc3cccc4ccc(C)nc34)c2Cl)CC1 | 95 |
| CCCCCCC=CC(OC(=O)c1ccccc1)C(COC1OC(COCC(=O)O)C(OCC(=O)O)C(OC(=O)c2ccccc2)C1OC(=O)c1ccccc1)NC(=O)CCCCCCCCC(=O)OC (centres undefined) | 124 to 125 |
| COc1ccc(C(O)CNCc2ccccc2[N+](=O)[O-])cc1OC (centres undefined) | 120 to 121 |
| CC(C)=CCC/C(C)=C/CC/C(C)=C/CC/C=C(\C)CC/C=C(\C)CCC=C(C)C | -5 |
| CC(C)[C@H](NC(=O)N(C)Cc1csc(NC(=O)OC(C)(C)C)n1)C(=O)N[C@@H](Cc1ccccc1)C[C@H](O)[C@H](Cc1ccccc1)NC(=O)[C@@H](NC(=O)N(C)Cc1csc(NC(=O)OC(C)(C)C)n1)C(C)C | 115 to 120 |
| O=C(O)Cc1cccc(-c2cc(CCCC(=O)N3CCC(CCCC4CCN(C(=O)CCCc5ccc(OC6OC(CO)C(O)C(O)C6O)c(-c6cccc(CC(=O)O)c6)c5)CC4)CC3)ccc2OC2OC(CO)C(O)C(O)C2O)c1 (centres undefined) | 119 to 121 |
| CC(=O)OCC(COC(C)=O)NC(=O)c1c(I)c(NC(=O)OCC2CO2)c(I)c(C(=O)NC(COC(C)=O)COC(C)=O)c1I (centres undefined) | 228 to 230 |
| CC(C)=CCCC(C)=CCCC(C)=CCCC(C)=CCCC(C)=CCCC(C)=CCCC(C)=CCCC(C)=CCCC(C)=CCCC(C)=CCNCC12CCCN1CCC2 | 59 to 61 |
| CC(=O)OCC1OC(SCCCCCCOC2CCC3(C)C(=CCC4C3CCC3(C)C(C(C)CCCC(C)C)CCC43)C2)C(OC(C)=O)C(OC(C)=O)C1OC(C)=O (centres undefined) | 103 to 104 |
| CC[C@H](C)CNC(=O)[C@@H](C[C@H](O)[C@H](CC1CCCCC1)NC(=O)[C@H](Cc1cscn1)NC(=O)[C@H](Cc1cccc2ccccc12)NC(=O)CN1CCOCC1)C(C)(C)O | 141 to 143 |
| CC(C)C(OC(C(I)=C(I)I)C(C)C)C(I)=C(I)I (centres undefined) | 43.5 to 44 |
| CCCCCCCCCCCCCCCCCCOC(=O)CCSCc1c(C)c(O)c(C)c(CSCCC(=O)OCCCCCCCCCCCCCCCCCC)c1C | 66 to 70 |
| O=S(=O)(C(/C=C/c1c(F)c(F)c(F)c(F)c1F)c1ccc(I)cc1)C(/C=C/c1c(F)c(F)c(F)c(F)c1F)c1ccc(I)cc1 (centres undefined) | 178 to 181 |
| CCCCCCCCCCCCCC=CC(OC(=O)c1ccccc1)C(COC1OC(COCCC(C(=O)OC(C)(C)C)C(=O)OC(C)(C)C)C(O)C(O)C1O)NC(=O)CCCCCCCCCCCCCCC (centres undefined) | 47.5 to 48.5 |
| COc1cc(OC)c(/C=C/C(c2ccc(OC)c(NC(=O)CN3CCN(C)CC3)c2)S(=O)(=O)C(/C=C/c2c(OC)cc(OC)cc2OC)c2ccc(OC)c(NC(=O)CN3CCN(C)CC3)c2)c(OC)c1 (centres undefined) | 176 to 178 |
| [C-]#[N+]C(C)C(=O)NCC1CC2CC(C1C)C2(C)C (centres undefined) | 58 to 59 |
| CCCCCCCCCCCCCCCCCCN(CCCCCCCCCCCCCCCCCC)C(=O)c1cc(NS(=O)(=O)c2ccc(S(=O)(=O)CCC#N)cc2)c2ccccc2c1O | 85 to 86 |
| O=C(Nc1c(Cl)cncc1Cl)C(=O)c1cn(Cc2c(F)cccc2[N+](=O)[O-])c2c(O)cccc12 | 308 to 310 |

The next lines start with the values.

| melting point [°C] | SMILES |
| --- | --- |
| 150 to 155 | CSC(=NS(=O)(=O)c1ccccc1)c1ccccc1 |
| 142 to 148 | COc1ccc(N2C(=O)C3Cc4[nH]cnc4CN3C2=O)cc1 (centres undefined) |
| 244 to 245 | C=C(C)C(=O)Nc1ccc2ncnc(Nc3cccc(Br)c3)c2c1 |
| 260 to 262 | Cc1cccc(-c2sc(N)nc2-c2ccc([N+](=O)[O-])c(O)c2)n1 |
| 129 to 130 | CCOCc1nc(C(C)(C)O)c(C(=O)OCc2oc(=O)oc2C)n1Cc1ccc(-c2ccccc2-c2nnnn2C(c2ccccc2)(c2ccccc2)c2ccccc2)cc1 |
| 57 to 59 | CCC(CC)NC(=O)c1ccc(-c2scc(-c3ccccc3Cl)c2CC(=O)OC)cc1 |
| 167 | COc1cc(C(=O)c2c(C)c(C(=O)OCc3ccccc3)c3cc(N(C)C)ccn23)ccc1[N+](=O)[O-] |
| 172 to 173 | O=c1c(CCCc2cccnc2)cc2cccnc2n1-c1cccc([N+](=O)[O-])c1 |
| 115 to 120 | CCCCOC(=O)Nc1nc(CN(C)C(=O)N[C@H](C(=O)N[C@@H](Cc2ccccc2)C[C@H](O)[C@H](Cc2ccccc2)NC(=O)[C@@H](NC(=O)N(C)Cc2csc(NC(=O)OCCCC)n2)C(C)C)C(C)C)cs1 |
| 133 | N=S(=O)(c1ccccc1)c1cccs1 (centres undefined) |
| 200 | CCn1cc(C(=O)Nc2cc(Oc3ccc4nc(NC(=O)C5CC5)cn4n3)ccc2Cl)c(C)n1 |
| 188 | Cn1cncc1C(O)(c1ccoc1)c1ccc2c(c1)c(-c1cccc(Cl)c1)cc1nnnn12 (centres undefined) |
| 125 | CN(C)CCCN=S(=O)(c1ccccc1)c1cccs1 (centres undefined) |
| 154 to 160 | CN=S(=O)(NC(=O)Nc1nc(C)nc(OC)n1)c1ccccc1Cl (centres undefined) |
| 197 to 198 | COc1c(Oc2nc3ccccc3o2)c(C)c(C)n(Cc2ccccc2)c1=O |
| 292 to 294 | Cc1c(Cc2ccccc2)sc2nc(N)[nH]c(=O)c12 |
| 171 to 173 | CCOC(=O)c1cc(NCc2c(C)cccc2CC)c2nc(C)n(C)c2c1 |
| 97 to 99 | CC(C)[C@H](NC(=O)N(C)Cc1ccccn1)C(=O)N[C@@H](Cc1ccccc1)[C@H](O)[C@@H](O)[C@H](Cc1ccccc1)NC(=O)[C@@H](NC(=O)N(C)Cc1csc(N)n1)C(C)C |
| 208 to 210 | Cc1ccccc1-n1c(-c2cc(-c3ccncc3)c(N3CCOCC3)s2)nc2ccccc2c1=O |
| 107 to 108 | Cc1nn(-c2ccc(C(F)(F)F)cn2)cc1CCCOc1cccc(OC(C)(C)C(=O)O)c1 |
| 47 to 50 | [C-]#[N+]C(C)C(=O)N(c1ccccc1)C(C)C (centres undefined) |
| 236 | Cc1cccc(-c2sc(N)nc2-c2ccnc(-c3ccc(CN4CCOCC4)cc3)c2)n1 |
